These results are taken from patent publication US20220016067A1, “NOVEL ANTI-INFLAMMATORY COMPOUND, PRODUCING METHOD AND USE THEREOF” (priority 2020, published 2022).

Holding throughout (format): cell-based
For one data set, the system named is iNOS. The data set can be described thus: LPS-induced iNOS expression in RAW264.7 macrophage cells (Western blot). To be noted: LPS 200 ng/ml, PL6 50-400 μM, 24 hours. On the procedure: The effect of Pineapplin PL6 on the LPS-induced iNOS expression is tested in RAW264.7 macrophage cells. The iNOS/β-actin ratio is the relative expression level of iNOS and β-actin protein. The higher the expression level of iNOS, the more inflammation response occurred (as an inflammation index). RAW264.7 macrophage cells were pretreated with LPS (200 ng/ml) for 24 hours, then incubated with various concentrations (50, 100, 200 and 400 μM) of PL6 at 5% CO2 and 37° C. for 24 hours. The (−) control group is treated with LPS-free medium, and the (+) control group is treated with PL6-free LPS medium. The cell culture supernatant of each group is collected, then the protein concentration is calculated, and 30 μg of total protein is taken from each group for protein gel electrophoresis. […] The luminescence fluorescence digital analysis system (ImageQuant LAS 400 mini, GE Healthcare Life Sciences) is used for luminescence color development.
The data shown in FIG. 7 is the relative expression of iNOS protein to β-actin, which is calculated by a software, based on the values obtained from the luminescence color film using scanning optical density method and standardized to β-actin protein.
A general note: Immunoblotting shows a protein as a band on a membrane.

Data set [1] deals with nitric oxide production induced by LPS in RAW264.7 macrophages. The data set can be described thus: LPS-induced NO production in RAW264.7 macrophages (Griess reagent). To be noted: 200 μM and 400 μM, LPS 200 ng/ml, RAW264.7, 24 hours. On the procedure:
RAW264.7 cells are inoculated in a 96-well plate at a density of 4×10^5 cells/well. After the cells are adhered overnight, 200 ng/ml LPS is added, the blank control group has no LPS added, and incubated at 5% CO2 and 37° C. for 24 hours. On the second day, different concentrations (50, 100, 200 and 400 μM) of Pineapplin PL6 are added to the wells. The blank control group is treated with LPS-free medium, and the blank control group is treated with PL6-free LPS medium. The cells are then cultured under the condition of 5% CO2 and 37° C. After 24 hours of incubation, 150 μl of medium for each group is collected.
A solution of 1% p-aminobenzene sulfonic acid dissolved in 5% phosphoric acid is prepared, and then mixed with 0.1% N-(1-naphthyl)ethylenediamine dihydrochloride at a ratio of 1:1 to form the Griess reagent. Solutions of sodium nitrite at concentrations of 1.5625 μM to 100 μM are prepared for making a standard curve. 150 μl of the collected medium is mixed with 50 μl of the Griess reagent, and reacted in a dark environment for 30 minutes. The change in absorbance at a wavelength of 555 nm is measured using an ELISA reader.
(Nitrite, measured by Griess reagent, commonly stands in for NO production.)

For a further data set, the system named is RAW264.7 cells. The data set can be described thus: Cytotoxicity test (Alamar blue) in RAW264.7 cells. To be noted: 25, 50, 100, 200, 400 and 800 μM, 24 hours. On the procedure: RAW264.7 cells are cultured in RPMI medium containing 10% fetal bovine serum, 0.2% sodium bicarbonate and 1% penicillin/streptomycin, and in a 5% CO2, 37° C. incubator. The cells are subcultured when a confluency of 70-80% is reached. RAW264.7 cells are inoculated in a 96-well plate at a density of 4×10^4 cells/well per well. After the cells are adhered for overnight incubation, Pineapplin PL6 at different concentrations (25, 50, 100, 200, 400 and 800 μM) or pineapple extract (3, 6, 12 mg/ml) is added to each well. The blank control group is treated with culture medium without the Pineapplin PL6 or pineapple extract After 24 hours of incubation, Alamar blue is used to test cytotoxicity of the Pineapplin PL6. The medium is removed, washed twice with PBS, and diluted 10 times with Alamar Blue reagent in the medium without FBS. After reaction in dark for 6 hours, the change in absorbance at a wavelength of 570 nm is measured by using an ELISA reader.
Background: Resazurin is reduced to fluorescent resorufin, in cell work by metabolically active cells.

A further data set has as its system NFκB. The data set is described as follows: LPS-induced NFκB expression (p-p65/p65) in RAW264.7 macrophage cells (Western blot). Particulars: LPS 200 ng/ml, PL6 50-400 μM, 24 hours. On the procedure: In this example, effect of Pineapplin PL6 on the LPS-induced NFκB expression is further tested in the RAW264.7 macrophage cell line. The value of p-p65/p65 is the relative expression level of NFκB protein. The higher the expression level of NFκB, the more inflammation response occurred (as an inflammation index). RAW264.7 macrophage cells were pretreated with LPS (200 ng/ml) for 24 hours, then incubated with various concentrations (50, 100, 200 and 400 μM) of PL6 for 24 hours at a condition of 5% CO2 and 37° C. The (−) control group is treated with LPS-free medium, and the (+) control group is treated with PL6-free LPS medium. The cell culture supernatant of each group is collected, then the protein concentration is calculated, and 30 μg of total protein is taken from each group for protein gel electrophoresis. […] After washing with PBST, the developing agent (Western Chemiluminescent HRP Substrate) is added, and the luminescence fluorescence digital analysis system (ImageQuant LAS 400 mini, GE Healthcare Life Sciences) is used for luminescence color development.
The data shown in FIG. 8 is the relative expression of NFκB protein p-p65/p65, which is calculated by a software, based on the values obtained from the luminescence color film using scanning optical density method and standardized to β-actin protein.

Consider “1,2,3-tricarboxylic acid-propyl-3-hydroxyphenol acrylate [Pineapplin PL6]”, for which the “iNOS protein expression (iNOS/β-actin)” value with iNOS was “inhibiting iNOS protein expression”. For the same substance, the “production of nitric oxide induced by LPS” value in data set [1] is recorded as “significantly reduces”. Moreover, the “cytotoxicity to RAW264.7 cells” value in the data set with RAW264.7 cells is listed as “no obvious cytotoxicity”. Also, the “NFκB protein expression (p-p65/p65)” value in the data set with NFκB is reported as “inhibiting NFκB protein expression”.
